Test results published in patent US20040175401A1, “Enhanced parmacokinetic profile of hydrophobic substances” (priority 2001, published 2004).
Read-outs that look alike come from different tables or passages of the source. Marks after values point to notes of the source that are not given here.

What was measured:
[1] = starred values; log P estimated using SRC program
[2] = molar aqueous solubility, log value; cited from earlier work
[3] = n-octanol/water partition coefficient LogPoct calculated from solubility data; details: calculated as logPoct = (0.99 - logSw)/1.34
From the text: where logSw is the molar solubility and logPoct is the water-oil partition coefficient. Using this equation, values for logPoct can be calculated from solubility data.

Cc1onc(-c2ccccc2)c1-c1ccc(S(N)(=O)=O)cc1 [Valdecoxib]
LogSw [1]: −2.59* moles/L

CC(=O)Nc1nc2c(ncn2COCCOC(C)=O)c(=O)[nH]1 [N2,O-diacetylacyclovir]
LogSw [2]: −2.70 moles/L
LogPoct [3]: 2.75

CC(=O)OCCOCn1cnc2c(=O)[nH]c(N)nc21 [O-acetylacyclovir]
LogSw [2]: −0.86 moles/L
LogPoct [3]: 1.38

CCCCCCCC(=O)OCN1C(=O)NC(c2ccccc2)(c2ccccc2)C1=O [3-octanoloxymethyl-5,5-diphenylhydantoin]
LogSw [2]: −6.52 moles/L
LogPoct [3]: 5.60

CCC1(C)C(=O)NC(=O)NC1=O [5-Me-5-ethylbarbituric acid]
LogSw [2]: −1.23 moles/L
LogPoct [3]: 1.66

C=C(C)C1CC=C(C)C(=O)C1 (centres unmarked) [Carvone]
LogSw [2]: −1.67 moles/L
LogPoct [3]: 1.99

CCC(=O)NS(=O)(=O)c1ccc(-c2c(-c3ccccc3)noc2C)cc1 [Parecoxib]
LogSw [1]: −3.16* moles/L

C=C(C)C1CC=C(C)[C@@H](O)C1 (some centres unmarked) [carveol]
LogSw [2]: −1.88 moles/L
LogPoct [3]: 2.14

O=C1NC(=S)NC(=O)C12CCCCC2 [5,5-(CH2)5-2-thiobarbituric acid]
LogSw [2]: −3.46 moles/L
LogPoct [3]: 3.32

CCC[C@@]1(CCc2ccccc2)CC(O)=C([C@H](CC)c2cccc(NS(=O)(=O)c3ccc(C(F)(F)F)cn3)c2)C(=O)O1 [N-(3{(1R)-1-[(6R)-4-hydroxy-2-oxo-6-phenethyl-6-propyl-5,6-dihydro-2H-pyran-3-yl]propyl}phenyl)-5-(trifluoromethyl)-2-pyridinesulfonamide]
LogSw [1]: −8.00* moles/L
